Test results: patent US5563142A, “Diaromatic substituted compounds as anti-HIV-1 agents” (The Upjohn Company, priority 1994, dated 1996)
Where two headings read alike, the source gives them in different places.

Columns and labels:
[1] = biological target: T1, viral reverse transcriptase (Human immunodeficiency virus type 1 group M subtype B, UniProt P04585); assay: Viral reverse transcriptase inhibition, cell free assay; type: biochemical, human immunodeficiency virus (HIV-1); settings: poly rC or poly rG template; for inhibition at 100 µM: read-out: RT % INHIBITION (100 μM), 100 μM
T1 construct: Viral reverse transcriptase is found in extracts from bacterial clones; made in house; host or cells: Escherichia coli (extracts of bacterial clones, by the procedure of Larder et al., EMBO J. 6:3133-3137, 1987)
Source text: The utility of the diaromatic substituted piperazines (III), the anti-AIDS piperazines (IV) and the indoles (V) of this invention can be determined by their ability to inhibit viral reverse transcriptase, an enzyme essential for human immunodeficiency virus replication. This enzyme has characteristics which differentiate it from other known cellular polymerases and it is a unique enzyme which is not found in uninfected cells. Viral reverse transcriptase is found in extracts from bacterial clones prepared according to the procedure described in AIDS Virus Reverse Transcriptase defined by high level expression in Escherichia coli, EMBO J. 6:3133-3137 (1987). Inhibition of this enzyme is determined in a cell free assay which measures the level of radioactive precursors incorporated into DNA. Extracts prepared according to the procedure of Science, 1125-1129 (1981) are incubated in a mixture of inhibitor, 20 mM dithiothreitol, 60 mM sodium chloride, 0.05% NP-40, 10 mM magnesium chloride, 50 mM Tris pH 8.3, 10 μM [^35 S]-labeled deoxynuleoside-5'-triphosphate, 10 μg/ml RNA template (poly rC or poly rG) and 5 μg/ml DNA primer (oligo dG or oligo dT) for 30 minutes at 37° C. Incorporation of radio-labeled percursor is determined by spotting aliquots of the reaction mixture on DE81 paper, washing the papers to remove unincorporated percursor, drying and determining counts. The results (IC50 means the concentration, in μM of drug, required to inhibit the reverse transcriptase activity to the extent of 50%) of various assay(s) are combined and reported as % inhibition and IC50 (calculated).
^1 Viral reverse transcriptase is found in extracts from bacterial
clones prepared according to the procedure described by Larder, B.,
Purifoy D., Powell, K. and Darby, G., AIDS virus reverse transcriptase
defined by high level expression in Escherichia coli., EMBO J. 6,
3133-3137 (1987). Inhibition of this enzyme is determined in a cell free
assay which measures the level of radioactive precursors incorporated int
DNA. Extracts prepared according to the procedure of Kleid, D. G., et
al., Science, 1125-1129 (1981) are incubated in a mixture of inhibitor, 2
mM dithiothreitol, 60 mM sodium chloride, 0.05% NP40, 10 mM magnesium
chloride, 50 mM Tris pH 8.3, 10 μM [^35 Slabeled
deoxynucleoside5triphosphate, 10 μg/ml RNA template (poly rC or poly
rG) and 5 μg/ml DNA primer (oligo dG or oligo dT) for 15 minutes at
37°. Incorporation of radio labeled precursor is determined by
harvesting the trichloroacetic acid precipitated reaction mixtures on
glass fiber filters, drying, and determining counts. The results of
various assays are combined and reported as % inhibition at a 100 μM

[2] = system: HIV in primary human peripheral blood lymphocytes; assay: Primary PBL assay: inhibition of viral replication (p24 & RNA); type: cell-based; settings: primary human lymphocytes infected with HIV, days three and four, read-out: PBL INHIBITION OF VIRAL REPLICATION (p24 & RNA) ED50
Method: ^3 The utility of the compounds of the invention is further
infection in primary peripheral blood lymphocytes (primary PBL assay). Th
primary PBL assay offers the following advantages:
(a) The assays are performed with primary human lymphocytes. Thereby,
undesired testing of transformed cell lines is avoided in which host cell
and virus may have undergone processes of mutual adaptation. Performance
of cell culture in serum containing media closely mimics the in vivo
situation. (b) The primary PBL assay distinguishes between true antiviral
effect which is due to the drug and cytostatic/cytotoxic reactions. (c)
Viral replication is precisely followed by kinetic measurement of viral
nucleic acids and proteins. (d) Nucleic acids (total HIVRNA intra and
extracellular) and protein (secreted p24) are measured in parallel which
permits one to differentiate between the compound's effect on virus
replication and on the expression of viral proteins. This leads to
additional information regarding the efficacy of the test compound. (e)
Tolerance of the cell culture against low amounts of organic solvents als
permits the investigation of hydrophobic substances. (f) The dose of the
drug causing half maximal suppression of virus replication is determined.
(g) The screening system is standardized and automated to a high degree.
The primary PBL assay uses the following procedure:
Effects of the compounds of the invention on cell proliferation are determined by lymphocyte proliferation assays. Starting with a 100 micromolar solution, the compound is serially diluted 10 fold. One tenth of the concentration of a compound causing half maximal inhibition of cellular proliferation is employed for all subsequent testing.
Peripheral human lymphocytes are isolated by density gradient centrifugation. After stimulation by mitogen the cells are infected with a standardized preparation of HIV. Subsequently, the infected cells are cultured in the presence of the drug for four days. Individual cultures are established to measure viral replication three and four days following infection. Untreated cells and AZT-treated cells are included as controls in parallel with the drugs under investigation.
The amount of viral core protein p24 synthesized and release by the infected cells is determined in the supernatant by the capture-ELISA technique on days three and four. By comparing with a standard preparation, the amount of protein produced by the virus infected cells is quantified.
The total amount of viral RNA synthesized by the infected lymphocytes is determined by a special nucleic acid hybridization on days three and four of culture. By including a standard preparation of HIV-RNA the amount of synthesized RNA is quantified.
In addition, viability of HIV-infected cells is determined in parallel with assays for viral p24 and RNA. In order to evaluate the half maximal antiviral effect of the drug, a concentration dependency of the drug action is measured.
Numerous examples of the compounds of the invention are assayed according to this procedure. The anti-HIV activity, as measured by the inhibition of the release of core p24 protein in HIV infected human lymphocytes, is used to calculate ED50 -antiviral (the concentration required to give a 50% reduction in p24 synthesis).

[3] = Human immunodeficiency virus 1, Lymphocyte

Row | SMILES | inhibition at 100 µM [1] [%] | EC50 [2, 3] [nM] | RT % INHIBITION (100 μM) ([1]; 100 μM) | EC50 [2] [nM]
1 | CC(C)Nc1nccnc1N1CCN(C(=O)c2cc3cc(F)ccc3[nH]2)CC1 [Example 47, 1-(5-Fluoroindolyl-2-carbonyl)-4-[3-(1-methylethylamino)-2-pyrazinyl]piperazine] | 91 | 1 to 10 |  | 
2 | CCC(C)Nc1cccnc1N1CCN(C(=O)c2cc3ccccc3[nH]2)CC1 (stereo not shown) [Example 99] | 93 to 95 | 1 to 10 |  | 
3 | CNc1cccnc1N1CCN(C(=O)c2cc3cc(F)ccc3[nH]2)CC1 [Example 63, 1-(5-Fluoroindolyl-2-carbonyl)-4-[3-methylamino-2-pyridinyl]piperazine] | 82 to 88 | 1000 |  | 
4 | COc1ccc2cc(C(=O)N3CCN(c4ncccc4NC(C)C)CC3)[nH]c2c1 [Example 87, 1-[6-Methoxyindolyl-2-carbonyl]-4-[3-(1-methylethylamino)-2-pyridinyl]-piperazine] | 96 to 98 | 10 |  | 
5 | CC(C)Nc1cccnc1N1CCN(C(=O)c2ccc[nH]2)CC1 [Example 69, 1-[Pyrrolyl-2-carbonyl]-4-[3-(1-methylethylamino)-2-pyridinyl]piperazine] | 95 | 100 |  | 
6 | CC(C)Nc1cccnc1N1CCCN(C(=O)c2cc3cc(F)ccc3[nH]2)CC1 [Example 84] | 97 | < 1 |  | 
7 | CC(C)Nc1cccnc1N1CCN(C(=O)c2cc3cc([N+](=O)[O-])ccc3[nH]2)CC1 [Example 103, 1-[5-Nitroindolyl-2-carbonyl]-4-[3-(1-methylethylamino)-2-pyridinyl]piperazine] | 72 | < 10 |  | 
8 | CCOC(=O)COc1ccc2[nH]c(C(=O)N3CCN(c4ncccc4NC(C)C)CC3)cc2c1 [Example 60, 1-[5-(Ethoxycarbonylmethoxy)indolyl-2-carbonyl]-4-[3-(1-methylethylamino)-2-pyridinyl]piperazine] | 89 to 92 | 100 to 1000 |  | 
9 | COc1cccc2[nH]c(C(=O)N3CCN(c4ncccc4NC(C)C)CC3)cc12 [Example 88, 1-[4-Methoxyindolyl-2-carbonyl]-4-[3-(1-methylethylamino)-2-pyridinyl]piperazine] | 56 to 88 | 100 |  | 
10 | CC(C)Nc1cc(F)ccc1N1CCN(C(=O)c2cc3ccccc3[nH]2)CC1 [Example 74, 1-[Indolyl-2-carbonyl]-4-[2-(1-methylethylamino)-4-fluorophenyl]piperazine] | 82 to 84 | 10 to 100 |  | 
11 | COc1cc2cc(C(=O)N3CCN(c4ncccc4NC(C)C)CC3)[nH]c2cc1OC [Example 72, 1-[5,6-Dimethoxyindolyl-2-carbonyl]-4-[3-(1-methylethylamino)-2-pyridinyl]piperazine] | 43 to 66 | < 10 |  | 
12 | CC(C)Nc1cccnc1N1CCN(C(=O)c2cc3cc(OCc4ccccc4)ccc3[nH]2)CC1 [Example 36, 1-[5-Benzyloxyindolyl-2-carbonyl]-4-[3-(1-methylethyl)amino-2-pyridinyl]piperazine] | 69 to 84 | 10 |  | 
13 | CC(C)Nc1cccnc1N1CCN(C(=O)c2cc3cc4c(cc3[nH]2)OCO4)CC1 [Example 90, 1-[5,6-Methylenedioxyindolyl-2-carbonyl]-4-[3-(1-methylethylamino)-2-pyridinyl]piperazine] | 96 | < 1 |  | 
14 | CC(C)Nc1cccnc1OCCN(C)C(=O)c1cc2ccccc2[nH]1 [Example 58, 2-(2-(N-Methyl-N-(indolyl-2-carbonyl)amino)ethoxy)-3-(1-methylethylamino)pyridine] | 94 to 98 | < 100 |  | 
15 | O=C(c1cc2ccccc2[nH]1)N1CCN(c2ncccc2NC2CCCC2)CC1 [Example 56, 1-(Indolyl-2-carbonyl)-4-(3-cyclopentylamino-2-pyridinyl)piperazine] | 79 to 93 | 100 to 1000 |  | 
16 | COc1cc2[nH]c(C(=O)N3CCN(c4ncccc4NC(C)C)CC3)cc2cc1Br [Example 94, 1-[5-Bromo-6-methoxyindolyl-2-carbonyl]-4-[3-(1-methylethylamino)-2-pyridinyl]piperazine] | 85 | 10 to 100 |  | 
17 | CNc1cccnc1N1CCN(C(=O)c2cc3ccccc3[nH]2)CC1 [Example 65, 1-(Indolyl-2-carbonyl)-4-[3-(methylamino)-2-pyridinyl]piperazine] | 81 to 93 | ≤ 1 |  | 
18 | CC(C)Nc1cccnc1N1CCN(C(=O)c2nc3ccccc3[nH]2)CC1 [Example 62] |  |  | 64-78% | 1000 to 10000
19 | CC(C)Nc1ccnnc1N1CCN(C(=O)c2cc3ccccc3[nH]2)CC1 [Example 49, 1-(Indolyl-2-carbonyl)-4-[4-(1-methylethylamino)-3-pyridazinyl]piperazine, methane sulfonate] | 84 to 94 | ≤ 100 |  | 
20 | CCNc1cccnc1N1CCN(C(=O)c2cc3ccc(OC)c(C)c3[nH]2)CC1 [Example 71, 1-[6-Methoxy-7-methylindolyl-2-carbonyl]-4-(3-ethylamino-2-pyridinyl)piperazine] | 88 to 95 | 10 to 100 |  | 
21 | CC(C)Nc1cccnc1N(C)CCCCN(C)C(=O)c1cc2ccccc2[nH]1 [Example 124, N,N'-Dimethyl-N-(indolyl-2-carbonyl)-N'-[3-(1-methylethyl-amino)-2-pyridyl]-1,4-butanediamine] | 95 | > 100 |  | 
22 | COCC(C)Nc1cccnc1N1CCN(C(=O)c2cc3cc(F)ccc3[nH]2)CC1 (stereo not shown) [Example 106, 1-[5-Fluoroindolyl-2-carbonyl]-4-[3-(2-methoxy-1-methylethylamino)-2-pyridinyl]piperazine] | 76 to 81 | ≤ 1 |  | 
23 | CC(C)Nc1ccc(F)cc1N1CCN(C(=O)c2cc3ccccc3[nH]2)CC1 [Example 75, 1-[Indolyl-2-carbonyl]-4-[2-(1-methylethylamino)-5-fluorophenyl]piperazine] | 77 | 10 to 100 |  | 
